Earlier results, collected in US20240181106A1, “WATER-SOLUBLE PHOTOSENSITIVE COMPOSITION OF PHOTODYNAMIC ENVIRONMENTAL DISINFECTION AND METHOD OF ENVIRONMENTAL DISINFECTION BY USING THE SAME” (NATIONAL CHENG KUNG UNIVERSITY, priority 2022, published 2024).

safe single dose (60 kg-weight adult, every 4 hours): 120 mg | daily dose not to be exceeded (human): ≤ 7 mg/kg daily | maximum safe dose administered to a human (human): 2 mg/kg/single dose
SMILES: CN(C)c1ccc2nc3ccc(=[N+](C)C)cc-3sc2c1 [methylene blue]
